# According to ChEMBL document CHEMBL1201862, “PubChem BioAssay data set” (2004):
# Calls of active or inactive are those of the source.
# Experiments:
# [1] = Concentration-dependent survival of SW480 colon cancer line, luminescence detection with CellTiter-Glo, half-maximal inhibitory concentration (AID 1117338); type: functional
# [2] = RKO cell viability reduction, dose response, CellTiter-Glo luminescence (AID 1117322); type: functional
# [3] = cytotoxicity toward HCT116 cells – cell-based, CellTiter-Glo luminescence, IC50, dose response (AID 1117332); type: functional; details: HCT-116
# [4] = SNU-C1 cell viability reduction, dose response, CellTiter-Glo luminescence (AID 1117323); type: functional, cell-based
# [5] = cytotoxicity toward Colo320 cells – cell-based, CellTiter-Glo luminescence, IC50, dose response (AID 1117334); type: functional; details: COLO 320
# [6] = cytotoxicity toward HT-29 cells – cell-based, CellTiter-Glo luminescence, IC50, dose response (AID 1117330); type: functional
# [7] = CellTiter-Glo luminescent dose response of DLD-1 viability loss (AID 1117352); type: functional
# [8] = target: T1, Cytochrome P450 3A4 (Homo sapiens, UniProt P08684);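 further: CYP3A4 tested as one member of a cytochrome P450 panel screen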
# [9] = target: Large T antigen (Simian virus 40, UniProt P03070); type: functional, Betapolyomavirus macacae;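 further: Confirmatory-stage PubChem screen for compounds that inhibit SV40 T antigen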
# [10] = target: Protein Tat (Human immunodeficiency virus type 1 group M subtype B (isolate HXB2)(HIV-1), UniProt P04608); type: functional;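 further: tat binding to TAR RNA read out by fluorescence polarization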
# [11] = target: SWI/SNF-related matrix-associated actin-dependent regulator of chromatin subfamily A member 2 (Homo sapiens, UniProt P51531); test: Luminescence-based cell-based high throughput dose response assay to identify activators of the function of SWI/SNF related, matrix associated, actin dependent regulator of chromatin, subfamily a, member 2 (SMARCA2, BRM).; type: functional
# [12] = Counterscreen for activators of the function of SWI/SNF related, matrix associated, actin dependent regulator of chromatin, subfamily a, member 2 (SMARCA2, BRM): Luminescence-based cell-based high throughput dose response assay to identify non-selective compounds using the VP16 reporter assay.; type: functional
# [13] = test system: Cryptococcus neoformans; test: PubChem AID 686997; type: functional, organism-based
# [14] = target: Paired box protein Pax-8 (Homo sapiens, UniProt Q06710); test: inhibitors of PAX8-driven TPO luciferase reporter, dose response, RMG-I cells, cherry-pick (AID 687027); type: functional, cell-based;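 further: luciferase reporter driven by Pax8 target thyroperoxidase promoter measured by SteadyGlo luminescence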
# [15] = cytotoxicity in OVCAR8 ovarian cancer cells, dose response, PAX8 project, cell-based, plate reader, dry powder samples (AID 743197); type: functional; details: OVCAR-8
# [16] = P. falciparum 3D7-ScDHODH growth inhibitors, dose response, SYBR Green, dry powder samples (AID 1159570); type: functional, cell-based;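 further: parasite growth measured after 72 hours of compound exposure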
# [17] = P. falciparum Dd2 growth inhibitors, dose response, SYBR Green, cherry-picked samples (AID 1159567); type: functional, cell-based
# [18] = P. falciparum Dd2 growth inhibitors, dose response, SYBR Green, dry powder samples (AID 1159566); type: functional, cell-based;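 further: potency for growth inhibition with lower SYBR green DNA signal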
# [19] = P. falciparum ATP4 D1247Y mutant growth inhibitors, dose response, NITD609-resistant line, SYBR Green, dry powder (AID 1159571); type: functional, cell-based;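 further: parasites synchronized at ring stage by sorbitol before testing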
# [20] = target: T1, Cytochrome P450 3A4; remark: listed apart in the source
# [21] = target: Kallikrein-7 (Homo sapiens, UniProt P49862); test: Fluorescence Intensity-based biochemical primary high throughput dose response assay to identify activators of kallikrein-7 (K7) zymogen.
# [22] = target: Mu-type opioid receptor (Homo sapiens, UniProt P35372); type: functional, cell-based;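 further: U2OS cells with beta-arrestin recruitment to OPRM1 by beta-gal complementation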
# [23] = target: 5-hydroxytryptamine receptor 2A (Mus musculus, UniProt P35363); type: functional, cell-based;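 further: CHO-K1 cells with tagged receptor and beta-arrestin; agonist potency measured as compound-induced activation of the receptor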
# [24] = inhibitors of Vif binding to APOBEC3G peptide, primary screen, biochemical, TR-FRET, GST-Vif 1-94, biotin-A3G peptide, dose response retest (AID 1117319); type: functional;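 further: TR-FRET signal of purified GST-Vif binding a biotinylated A3G peptide; inhibitors lower the FRET signal by blocking Vif and A3G binding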
# [25] = target: T2, Calpain-2 catalytic subunit (Sus scrofa, UniProt P43367); test: pig calpain II inhibitor potency, dose response, biochemical, fluorogenic peptide substrate (AID 1420); type: functional
# T2 sequence (P43367 whole entry): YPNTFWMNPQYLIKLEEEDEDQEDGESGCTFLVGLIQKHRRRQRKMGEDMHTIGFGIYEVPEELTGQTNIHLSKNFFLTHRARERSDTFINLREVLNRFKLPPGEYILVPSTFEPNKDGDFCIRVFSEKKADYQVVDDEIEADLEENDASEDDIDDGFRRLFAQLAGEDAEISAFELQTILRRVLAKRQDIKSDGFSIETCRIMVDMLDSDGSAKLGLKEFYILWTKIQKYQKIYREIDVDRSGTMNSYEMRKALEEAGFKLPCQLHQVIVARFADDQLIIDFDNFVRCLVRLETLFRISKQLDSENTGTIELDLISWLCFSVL
# [26] = P. falciparum late gametocyte killing, dose response, luminescence (AID 1117278); type: functional, cell-based;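 further: gametocytes exposed to compound for 24 hours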
# [27] = Jurkat T cell cytotoxicity, dose response, cytotoxicity control for P. falciparum gametocyte viability project, luminescence (AID 1117277); type: functional, cell-based;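 further: potency reflects loss of cellular ATP meaning fewer viable cells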
# Chain of SWI/SNF-related matrix-associated actin-dependent regulator of chromatin subfamily A member 2 (P51531 whole entry): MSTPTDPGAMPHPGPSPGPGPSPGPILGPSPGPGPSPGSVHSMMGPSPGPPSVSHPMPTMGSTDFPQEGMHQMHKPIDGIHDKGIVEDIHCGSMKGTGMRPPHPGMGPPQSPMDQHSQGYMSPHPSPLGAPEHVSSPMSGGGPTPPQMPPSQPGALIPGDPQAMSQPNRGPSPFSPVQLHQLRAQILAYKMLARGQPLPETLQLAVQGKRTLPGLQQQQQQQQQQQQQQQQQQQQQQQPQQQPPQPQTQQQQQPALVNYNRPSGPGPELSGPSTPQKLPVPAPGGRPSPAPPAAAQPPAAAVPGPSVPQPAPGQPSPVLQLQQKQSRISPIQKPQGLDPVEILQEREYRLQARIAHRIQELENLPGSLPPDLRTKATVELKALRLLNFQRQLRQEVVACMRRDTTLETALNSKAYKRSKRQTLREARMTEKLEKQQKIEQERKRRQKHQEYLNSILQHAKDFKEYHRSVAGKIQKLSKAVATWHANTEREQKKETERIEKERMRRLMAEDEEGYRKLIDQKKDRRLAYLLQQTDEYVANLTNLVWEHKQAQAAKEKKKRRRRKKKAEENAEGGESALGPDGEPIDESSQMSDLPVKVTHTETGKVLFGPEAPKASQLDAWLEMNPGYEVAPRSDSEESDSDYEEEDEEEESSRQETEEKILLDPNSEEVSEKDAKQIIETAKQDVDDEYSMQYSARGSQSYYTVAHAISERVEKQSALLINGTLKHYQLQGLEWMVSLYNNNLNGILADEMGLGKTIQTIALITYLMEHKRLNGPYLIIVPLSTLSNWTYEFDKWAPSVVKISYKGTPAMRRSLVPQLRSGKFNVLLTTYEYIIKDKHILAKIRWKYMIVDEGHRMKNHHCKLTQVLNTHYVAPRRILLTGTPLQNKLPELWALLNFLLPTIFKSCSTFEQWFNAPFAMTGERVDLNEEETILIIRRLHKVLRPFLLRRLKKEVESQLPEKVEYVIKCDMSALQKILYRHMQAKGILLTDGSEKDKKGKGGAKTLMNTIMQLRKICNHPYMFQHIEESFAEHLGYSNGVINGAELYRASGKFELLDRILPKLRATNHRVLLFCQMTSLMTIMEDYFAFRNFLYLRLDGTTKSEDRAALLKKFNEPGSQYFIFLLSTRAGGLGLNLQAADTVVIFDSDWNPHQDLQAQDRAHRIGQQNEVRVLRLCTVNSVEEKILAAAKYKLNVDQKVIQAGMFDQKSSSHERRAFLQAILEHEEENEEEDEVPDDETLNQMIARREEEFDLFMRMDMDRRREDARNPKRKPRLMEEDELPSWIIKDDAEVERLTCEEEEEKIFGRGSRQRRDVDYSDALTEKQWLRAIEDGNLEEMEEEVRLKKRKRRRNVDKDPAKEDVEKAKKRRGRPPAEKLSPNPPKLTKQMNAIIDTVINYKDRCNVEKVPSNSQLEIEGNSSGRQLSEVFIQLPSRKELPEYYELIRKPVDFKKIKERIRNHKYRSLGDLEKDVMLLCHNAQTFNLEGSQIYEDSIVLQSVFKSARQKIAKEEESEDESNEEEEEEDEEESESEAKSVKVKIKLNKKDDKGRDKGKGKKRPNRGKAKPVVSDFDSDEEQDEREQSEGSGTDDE
# T1 sequence (P08684 whole entry): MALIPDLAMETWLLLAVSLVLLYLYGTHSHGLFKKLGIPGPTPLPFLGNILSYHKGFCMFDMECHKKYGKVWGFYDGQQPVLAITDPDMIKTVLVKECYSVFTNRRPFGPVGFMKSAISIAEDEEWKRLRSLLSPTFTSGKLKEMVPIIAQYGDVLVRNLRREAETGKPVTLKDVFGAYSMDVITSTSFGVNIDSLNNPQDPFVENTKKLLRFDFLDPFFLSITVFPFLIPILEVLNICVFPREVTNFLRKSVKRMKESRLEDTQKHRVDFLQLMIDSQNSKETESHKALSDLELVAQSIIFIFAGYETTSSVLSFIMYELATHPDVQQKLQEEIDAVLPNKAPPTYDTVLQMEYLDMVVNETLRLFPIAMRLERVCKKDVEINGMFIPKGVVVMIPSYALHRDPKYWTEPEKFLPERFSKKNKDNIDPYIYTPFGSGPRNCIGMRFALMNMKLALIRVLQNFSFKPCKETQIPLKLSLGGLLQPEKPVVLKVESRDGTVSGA
# Chain of Mu-type opioid receptor (P35372 whole entry): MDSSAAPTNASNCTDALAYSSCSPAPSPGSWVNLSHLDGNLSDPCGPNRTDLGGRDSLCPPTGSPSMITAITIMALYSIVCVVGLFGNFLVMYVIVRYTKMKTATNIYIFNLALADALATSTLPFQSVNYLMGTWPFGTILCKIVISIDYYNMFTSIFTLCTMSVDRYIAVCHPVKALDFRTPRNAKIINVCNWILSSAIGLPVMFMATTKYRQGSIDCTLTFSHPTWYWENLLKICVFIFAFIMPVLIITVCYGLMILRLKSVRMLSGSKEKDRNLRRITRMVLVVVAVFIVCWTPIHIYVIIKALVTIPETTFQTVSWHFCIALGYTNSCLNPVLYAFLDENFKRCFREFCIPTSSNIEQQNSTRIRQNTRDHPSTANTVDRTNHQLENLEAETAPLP
# Chain of 5-hydroxytryptamine receptor 2A (P35363 whole entry): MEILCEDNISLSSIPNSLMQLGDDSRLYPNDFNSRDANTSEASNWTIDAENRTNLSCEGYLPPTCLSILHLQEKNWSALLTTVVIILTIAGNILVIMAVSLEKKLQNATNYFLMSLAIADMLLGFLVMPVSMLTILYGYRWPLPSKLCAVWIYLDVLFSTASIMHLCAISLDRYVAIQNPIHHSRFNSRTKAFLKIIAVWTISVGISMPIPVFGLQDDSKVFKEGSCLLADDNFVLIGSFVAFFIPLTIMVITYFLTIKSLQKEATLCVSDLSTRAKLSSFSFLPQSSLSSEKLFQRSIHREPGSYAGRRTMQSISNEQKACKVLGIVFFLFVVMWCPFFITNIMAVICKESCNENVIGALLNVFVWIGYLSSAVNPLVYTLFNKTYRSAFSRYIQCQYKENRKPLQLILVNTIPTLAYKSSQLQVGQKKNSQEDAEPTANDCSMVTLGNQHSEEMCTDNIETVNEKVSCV
# Chain of Paired box protein Pax-8 (Q06710 whole entry): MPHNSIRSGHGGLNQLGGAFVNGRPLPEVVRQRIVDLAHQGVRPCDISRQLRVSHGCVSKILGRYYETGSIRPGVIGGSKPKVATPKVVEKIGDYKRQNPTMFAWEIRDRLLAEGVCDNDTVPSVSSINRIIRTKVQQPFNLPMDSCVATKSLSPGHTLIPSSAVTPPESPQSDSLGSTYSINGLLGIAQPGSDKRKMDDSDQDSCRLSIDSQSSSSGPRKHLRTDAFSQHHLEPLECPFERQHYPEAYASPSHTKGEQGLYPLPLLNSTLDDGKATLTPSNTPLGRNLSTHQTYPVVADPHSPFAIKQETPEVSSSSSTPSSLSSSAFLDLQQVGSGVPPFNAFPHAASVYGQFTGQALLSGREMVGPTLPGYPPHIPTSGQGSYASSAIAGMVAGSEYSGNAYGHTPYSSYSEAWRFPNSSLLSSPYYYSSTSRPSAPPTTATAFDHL
# Chain of Large T antigen (P03070 whole entry): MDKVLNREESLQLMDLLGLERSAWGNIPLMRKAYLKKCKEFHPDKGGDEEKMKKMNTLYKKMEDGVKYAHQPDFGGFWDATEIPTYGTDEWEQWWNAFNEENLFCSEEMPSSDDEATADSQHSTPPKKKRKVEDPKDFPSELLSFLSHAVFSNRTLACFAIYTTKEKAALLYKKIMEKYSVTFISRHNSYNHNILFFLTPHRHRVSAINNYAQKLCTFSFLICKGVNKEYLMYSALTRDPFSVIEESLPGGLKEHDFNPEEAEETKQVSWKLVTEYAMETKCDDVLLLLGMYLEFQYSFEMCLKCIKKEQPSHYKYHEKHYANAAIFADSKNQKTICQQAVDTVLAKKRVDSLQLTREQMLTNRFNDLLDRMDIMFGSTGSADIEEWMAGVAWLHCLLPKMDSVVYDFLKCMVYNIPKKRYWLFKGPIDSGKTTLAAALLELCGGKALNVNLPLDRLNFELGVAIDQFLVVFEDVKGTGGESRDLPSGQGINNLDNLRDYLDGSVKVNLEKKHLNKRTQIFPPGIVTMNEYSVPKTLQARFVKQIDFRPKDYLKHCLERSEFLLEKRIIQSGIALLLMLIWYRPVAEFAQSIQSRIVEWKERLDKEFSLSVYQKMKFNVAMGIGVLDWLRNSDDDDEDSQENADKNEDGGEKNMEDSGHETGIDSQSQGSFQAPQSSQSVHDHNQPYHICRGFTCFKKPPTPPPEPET
# Chain of Kallikrein-7 (P49862 whole entry): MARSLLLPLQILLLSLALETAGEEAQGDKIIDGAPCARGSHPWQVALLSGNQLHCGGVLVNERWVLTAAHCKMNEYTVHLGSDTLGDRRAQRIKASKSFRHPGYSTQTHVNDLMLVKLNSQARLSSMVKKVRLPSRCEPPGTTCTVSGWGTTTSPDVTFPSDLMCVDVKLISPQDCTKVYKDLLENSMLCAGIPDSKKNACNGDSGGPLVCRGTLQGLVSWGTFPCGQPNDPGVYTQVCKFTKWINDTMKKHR
# Chain of Protein Tat (P04608 whole entry): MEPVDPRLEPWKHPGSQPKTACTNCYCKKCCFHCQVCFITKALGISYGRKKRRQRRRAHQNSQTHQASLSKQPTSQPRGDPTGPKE
compound,measurement,setting,value
Cc1ccc(Cl)c(Nc2ccccc2C(=O)[O-])c1Cl.O.[Na+] [MECLOFENAMATE SODIUM],IC50,[1],> 20 µM (inactive)
same,IC50,[2],> 20 µM (inactive)
same,IC50,[3],> 20 µM (inactive)
same,IC50,[4],> 20 µM (inactive)
same,IC50,[5],> 20 µM (inactive)
same,IC50,[6],> 20 µM (inactive)
same,IC50,[7],15.1 µM (inactive)
same,AC50,[8],inconclusive
CC1OC(OCC2OC(Oc3c(-c4ccc(O)cc4)oc4cc(O)cc(O)c4c3=O)C(O)C(O)C2O)C(O)C(O)C1O (centres undefined),IC50,[9],17.3 µM (active)
same,IC50,[10],> 100 µM (active)
C=C1C(=O)OC2C1CCC(C)C1(O)C=CC(=O)C21C (centres undefined),EC50,[11],> 91.2 µM (inactive)
same,EC50,[12],> 91.2 µM (inactive)
COC(=O)C1=C(C)N(Cc2ccccc2)C(=S)NC1c1ccc(Cl)cc1 (centres undefined),AC50,[13],28.7 µM (active)
COc1cccc(S(=O)(=O)N(C)C[C@@H]2OCc3ccccc3-c3c(n(C)c4ccccc34)C(=O)N([C@H](C)CO)C[C@@H]2C)c1,AC50,[14],6.87 µM (active)
same,AC50,[15],38.6 µM (active)
same,AC50,[16],0.476 µM (active)
same,AC50,[17],0.832 µM (active)
same,AC50,[18],0.322 µM (active)
same,AC50,[19],0.46 µM (active)
O=c1c2ccccc2sc2c(CO)ccc(NCCN3CCCCC3)c12,EC50,[11],> 91.1 µM (inactive)
same,EC50,[12],> 91.1 µM (inactive)
same,AC50,[20],6.31 µM (inconclusive)
O=C(c1cc(-c2cccs2)nc2ccccc12)N1CCN(CCO)CC1,EC50,[21],> 69.5 µM (inactive)
CC(C)=CC(=O)N1CC[C@@H](N2CCN(c3ccccc3F)CC2)[C@H](O)C1,EC50,[22],92.4 µM (inactive)
same,EC50,[23],43.5 µM (inactive)
O=C(CNC(=O)c1cccs1)OCC(=O)c1ccc2ccccc2c1,IC50,[24],> 100 µM (active)
CC(C(=O)Nc1ccccc1Oc1ccccc1)c1ccccc1 (centres undefined),IC50,[25],19.8 µM (not active)
same,IC50,[26],> 109 µM (inactive)
same,IC50,[27],> 83.2 µM (inactive)
